# PubChem BioAssay (NCI)
#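 Compound exposure: 48 hours, 5 concentrations, 96-well plates. GI50 = concentration required for 50% inhibition of growth. TGI: concentration producing complete growth inhibition.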
# How the values were obtained:
# Assay in all cases: DTP human tumour cell line panel, 48 h
# NCI-H23 lung = test system: NCI-H23 lung
# MCF7 breast = test system: MCF7 breast
# MOLT-4 leukemia = test system: MOLT-4 leukemia
# KM12 colon = test system: KM12 colon
# HCC-2998 colon = test system: HCC-2998 colon
# MDA-MB-231 breast = test system: MDA-MB-231 breast
# COLO 205 colon = test system: COLO 205 colon
# HOP-62 NSCLC = test system: HOP-62 NSCLC
# RXF 393 renal = test system: RXF 393 renal
# NCI/ADR-RES ovarian = test system: NCI/ADR-RES ovarian
Compound,TGI (NCI-H23 lung) [µM],TGI (MCF7 breast) [µM],TGI (MOLT-4 leukemia) [µM],TGI (KM12 colon) [µM],TGI (HCC-2998 colon) [µM],TGI (MDA-MB-231 breast) [µM],TGI (COLO 205 colon) [µM],TGI (HOP-62 NSCLC) [µM],TGI (RXF 393 renal) [µM],TGI (NCI/ADR-RES ovarian) [µM],GI50 (NCI-H23 lung) [µM],GI50 (MCF7 breast) [µM],GI50 (MOLT-4 leukemia) [µM],GI50 (RXF 393 renal) [µM],GI50 (KM12 colon) [µM]
COc1c2ccsc2c(OC)c2ccsc12,> 100,> 100,> 100,> 100,> 100,> 100,> 100,> 100,> 100,> 100,,,,,
CCOC(=O)CCC(NC(=O)Cc1ccc(Oc2nc3ccccc3nc2-c2ccccc2)cc1)C(=O)OCC (stereo unspecified),> 100,> 100,> 100,> 100,> 100,> 100,> 100,> 100,> 100,> 100,,,,,
COC(=O)c1cccc(OC)c1C#Cc1c(OC)cccc1OC,> 100,> 100,> 100,> 100,> 100,> 100,> 100,> 100,> 100,> 100,,,,,
C=Cc1nc(C#N)c(N)o1,> 100,> 100,> 100,> 100,> 100,> 100,> 100,> 100,> 100,> 100,,,,,
CCCN(CCC)C1CCc2c(ccc3cc[nH]c23)C1 (stereo unspecified),> 100,> 100,96.7,> 100,59.9,> 100,> 100,> 100,> 100,> 100,,,,,
COC1(c2cccs2)c2ccccc2C(OC)(c2cccs2)c2ccccc21 (stereo unspecified),> 100,> 100,> 100,> 100,> 100,> 100,> 100,> 100,> 100,> 100,,,,,
O=[N+]([O-])c1ccc(O)c(/C=N/c2nc(-c3ccccc3)cs2)c1,49.6,> 100,43.3,> 100,> 61.4,> 100,56.7,> 90.5,45.1,> 91.4,,,,,
CC1=CCC[C@H]2[C@](C)(CC3=CC(=O)C(Sc4ccccc4)=CC3=O)[C@@H](C)CC[C@]12C,28.2,51.7,6.03,> 100,41,51.8,29.5,32.6,34.3,32.5,14.7,22.6,2.59,16.1,
CC(=O)OC(C)c1cc2c(s1)C(=O)c1c(C(C)OC(C)=O)csc1C2=O (stereo unspecified),2.29,3.09,5.08,3.41,3.1,3.6,3.5,2.5,4.39,3.62,0.878,,,,
COC(=O)C1=CON2C3CC4CC(C3)CC(C4)C12C (stereo unspecified),> 100,> 100,> 100,> 100,> 100,> 100,> 100,> 100,> 100,> 100,,,,,
CN(C)CCNC(=O)c1ccc(Cl)c2cc3ccccc3nc12,2.08,3.58,4.03,11.4,3.52,3,1.64,4.6,3.08,5.65,,,,,
N#CC[N+]1(Cc2ccccn2)CCCC1,> 100,> 100,> 100,> 100,> 100,> 100,> 100,> 100,> 100,> 100,,,,,
CN(C)CC1CCC/C(=C\c2ccc(OC(=O)/C=C/c3ccc(Cl)c(Cl)c3)cc2)C1=O (stereo unspecified),14.4,5.79,4.13,3.61,10.1,11.9,3.93,14.8,4.41,18.5,,,,,
O=C1CS(=O)(=O)C(c2cccc(Oc3ccccc3)c2)N1c1ccccc1 (stereo unspecified),94.6,33.3,65.7,> 100,35,62.6,37.2,> 100,38.7,83,,,,,
COc1cc(CCN(C)C)cc(OC)c1OC,> 100,> 100,> 100,> 100,> 100,> 100,> 100,> 100,> 100,> 100,,,,,
NC(=Nc1ccccc1)c1ccccc1N,> 100,> 100,> 100,> 100,> 100,> 100,> 100,> 100,> 100,> 100,,,,,
CC12CCC(C(=Nc3cc(C(F)(F)F)cc(C(F)(F)F)c3)C1=O)C2(C)C (stereo unspecified),> 100,> 100,44.2,91.7,73.3,> 100,34.1,> 100,37.3,> 100,,,,,
COc1ccc2c(c1)CCN1CCCc3ccccc3C21 (stereo unspecified),> 100,> 100,> 100,> 100,80.8,> 100,> 100,> 100,> 100,> 100,,,,,
CCCc1nnc2sc(COc3cc(Cl)c(OCc4nn5c(CCC)nnc5s4)cc3Cl)nn12,> 100,72.9,> 100,> 100,> 100,> 100,> 100,> 100,> 100,> 100,,,,,
CCCCCCCCCCCCCCCCCC(=O)Nc1ccn(C2CCC(COP(=O)(O)O)O2)c(=O)n1 (stereo unspecified),> 100,> 100,> 100,> 100,> 100,> 100,> 100,> 100,> 100,> 100,,,,,
CC(=O)OCCCCn1cc(Cn2ccc(=O)n(Cc3cn(CCCCOC(C)=O)nn3)c2=O)nn1,> 100,> 100,> 100,> 100,> 100,> 100,> 100,> 100,> 100,> 100,,,,,
CCOC(=O)C(=CN1CCNC1=S)C(=O)OCC,> 100,> 100,> 100,> 100,> 100,> 100,> 100,> 100,> 100,> 100,,,,,> 100
O=[N+]([O-])c1cccc(Cl)c1Oc1ccc(S(=O)(=O)/N=C(\NO)Nc2ccc(Cl)cc2)cc1,33.9,32.2,19.3,31.2,24,47.6,31,45.4,30.9,50.7,,,,,
COc1ccc([C@]23CCN4COC[C@@H]([C@H]42)C2(CC3)OCC(C)(C)CO2)cc1OC,> 100,> 100,> 100,> 100,> 100,> 100,> 100,> 100,> 100,> 100,,,,,
Cc1c(O)c(OC2OC(CO)C(O)C(O)C2O)cc2c1C=C[C@@H]1[C@@]2(C)C(=O)C[C@]2(C)[C@@H]([C@@](C)(O)C(=O)CCC(C)(C)O)[C@H](O)C[C@@]12C (stereo partly specified),37.9,> 100,63.7,66.6,41,47.7,> 100,> 100,38.1,69.4,,,,,
O=C(C(Cl)=C(N1CCCCC1)N1CCCCC1)C(Cl)Cl,> 100,> 100,> 100,> 100,> 100,> 100,> 100,> 100,> 100,> 100,,,,,
COCC12CCC(OC)C34C5CC6(O)C(OC)CC(OC(C)=O)(C5C6OC(=O)c5ccccc5)C(C(OC)C13)C4N(C)C2 (stereo unspecified),> 100,> 100,> 100,> 100,> 100,> 100,> 100,> 100,> 100,> 100,,,,,
O=C(N/N=C(/COc1ccccc1Cl)N=Cc1ccncc1)c1ccncc1,> 100,> 100,> 100,> 100,> 100,> 100,> 100,> 100,> 100,> 100,,,,,
CCCCCN(CCCCC)CC(C)(C)C(O)c1ccc(OC)c2ccccc12 (stereo unspecified),32.3,22.5,76.9,25.4,31.4,31.2,40.6,> 100,24.1,26.3,,,,,
O=C1C2=C(SCCS2)C(=O)c2c(Sc3ccc(Cl)cc3)c(Sc3ccc(Cl)cc3)c(Sc3ccc(Cl)cc3)c(Sc3ccc(Cl)cc3)c21,> 100,> 100,30.9,> 100,> 100,85.3,> 100,> 100,99.4,> 100,,,,,
